Test results published in ChEMBL document CHEMBL1201862, “PubChem BioAssay data set” (2004).
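Protocol summary: plate cells (96-well), add compound at 5 concentrations, incubate 48 h, interpolate endpoints linearly. Here, GI50 denotes the concentration required for 50% inhibition of growth.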 The source made the active and inactive calls. No stated cut-off is given here; in the data, active = GI50 up to about 1.1 µM and inactive = higher.

Columns and labels:
Assay in all cases: NCI anticancer screen, dose series, 48 h
UO-31 = system: UO-31
MCF7 = system: MCF7
OVCAR-4 = system: OVCAR-4
MDA-N = system: MDA-N
SN12C = system: SN12C
HOP-62 = system: HOP-62
MDA-MB-231 = system: MDA-MB-231
SNB-19 = system: SNB-19
MDA-MB-435 = system: MDA-MB-435
786-0 = system: 786-0
T47D = system: T47D
NCI-H226 = system: NCI-H226
BT-549 = system: BT-549
SR = system: SR
OVCAR-3 = system: OVCAR-3
CAKI-1 = system: CAKI-1
A549 = system: A549
EKVX = system: EKVX
RPMI-8226 = system: RPMI-8226
HL-60 = system: HL-60

| SMILES | GI50 (UO-31) | GI50 (MCF7) | GI50 (OVCAR-4) | GI50 (MDA-N) | GI50 (SN12C) | GI50 (HOP-62) | GI50 (MDA-MB-231) | GI50 (SNB-19) | GI50 (MDA-MB-435) | GI50 (786-0) | GI50 (T47D) | GI50 (NCI-H226) | GI50 (BT-549) | GI50 (SR) | GI50 (OVCAR-3) | GI50 (CAKI-1) | GI50 (A549) | GI50 (EKVX) | GI50 (RPMI-8226) | GI50 (HL-60) |
| --- | --- | --- | --- | --- | --- | --- | --- | --- | --- | --- | --- | --- | --- | --- | --- | --- | --- | --- | --- | --- |
| N=C(N)SCc1cccc(-c2nc3ccccc3c(=O)o2)c1 | > 100 µM (inactive) | > 100 µM (inactive) | > 100 µM (inactive) | > 100 µM (inactive) | > 100 µM (inactive) | > 100 µM (inactive) | > 100 µM (inactive) | > 100 µM (inactive) | > 100 µM (inactive) | > 100 µM (inactive) | > 100 µM (inactive) | > 100 µM (inactive) | > 100 µM (inactive) | 95.5 µM (inactive) | > 100 µM (inactive) | > 100 µM (inactive) | > 100 µM (inactive) | > 100 µM (inactive) | > 100 µM (inactive) |  |
| O=C(/C=C\c1ccccc1)Oc1ccc(/C=C2\CCC/C(=C\c3ccc(OC(=O)/C=C\c4ccccc4)cc3)C2=O)cc1 | > 100 µM (inactive) | > 100 µM (inactive) | > 100 µM (inactive) | > 100 µM (inactive) | > 100 µM (inactive) | > 100 µM (inactive) | > 100 µM (inactive) | > 100 µM (inactive) | > 100 µM (inactive) | > 100 µM (inactive) | > 100 µM (inactive) |  | > 100 µM (inactive) | > 100 µM (inactive) | > 100 µM (inactive) | > 100 µM (inactive) | > 100 µM (inactive) | > 100 µM (inactive) | > 100 µM (inactive) | > 100 µM (inactive) |
| COc1cc(C2SC(=N)Nc3c2c(C)nn3C(=O)Cc2ccccc2)ccc1O (centres undefined) | > 100 µM (inactive) | > 100 µM (inactive) |  | > 100 µM (inactive) | > 100 µM (inactive) | > 100 µM (inactive) | > 100 µM (inactive) | > 100 µM (inactive) | > 100 µM (inactive) | > 100 µM (inactive) | > 100 µM (inactive) | > 100 µM (inactive) | > 100 µM (inactive) | > 100 µM (inactive) |  | > 100 µM (inactive) | > 100 µM (inactive) | > 100 µM (inactive) | > 100 µM (inactive) | > 100 µM (inactive) |
| COc1nc(N)c(NC2OC(CO)C(O)C2O)c(=O)[nH]1 (centres undefined) | > 100 µM (inactive) | > 100 µM (inactive) | > 100 µM (inactive) | > 100 µM (inactive) | > 100 µM (inactive) | > 100 µM (inactive) | > 100 µM (inactive) | > 100 µM (inactive) | > 100 µM (inactive) | > 100 µM (inactive) | > 100 µM (inactive) | > 100 µM (inactive) | > 100 µM (inactive) | > 100 µM (inactive) | > 100 µM (inactive) | > 100 µM (inactive) | > 100 µM (inactive) | > 100 µM (inactive) | > 100 µM (inactive) | > 100 µM (inactive) |
| COC(=O)C#Cc1ccc([N+](=O)[O-])cc1 | 1.42 µM (inactive) | 1.91 µM (inactive) | 1.7 µM (inactive) | 2.54 µM (inactive) | 1.67 µM (inactive) | 2.65 µM (inactive) | 2.09 µM (inactive) | 2.75 µM (inactive) | 2.18 µM (inactive) | 2.32 µM (inactive) | 1.45 µM (inactive) | 2.47 µM (inactive) | 1.49 µM (inactive) | 0.325 µM (active) | 1.59 µM (inactive) | 1.38 µM (inactive) | 2.74 µM (inactive) | 1.76 µM (inactive) | 0.665 µM (active) | 1.77 µM (inactive) |
| Cc1ccc(C2=Nn3c(nc4sc5c(c4c3=O)CCCC5)SC2)cc1 | > 100 µM (inactive) | > 100 µM (inactive) | > 100 µM (inactive) | > 100 µM (inactive) | > 100 µM (inactive) | > 100 µM (inactive) | > 100 µM (inactive) |  | > 100 µM (inactive) | > 100 µM (inactive) | > 100 µM (inactive) | > 100 µM (inactive) | > 100 µM (inactive) | > 100 µM (inactive) | > 100 µM (inactive) | > 100 µM (inactive) | > 100 µM (inactive) | > 100 µM (inactive) | > 100 µM (inactive) | > 100 µM (inactive) |
| COc1cc(S(=O)(=O)Nc2ccc(-c3csc(/N=C\c4cccs4)n3)cc2)ccc1Cl | 45.5 µM (inactive) | 16.5 µM (inactive) | > 100 µM (inactive) | 34.4 µM (inactive) | 89.5 µM (inactive) | 67 µM (inactive) | 87.7 µM (inactive) | 32.6 µM (inactive) | 29.3 µM (inactive) | 59.3 µM (inactive) | 19.2 µM (inactive) | 57.4 µM (inactive) | 31.1 µM (inactive) | 15.7 µM (inactive) | 54.6 µM (inactive) | > 100 µM (inactive) | 78.7 µM (inactive) | 28.1 µM (inactive) | 29 µM (inactive) |  |
| Cc1cccc(Cl)c1NC(=O)/C=C/c1ccccc1 |  | 32.5 µM (inactive) | 26.9 µM (inactive) | > 100 µM (inactive) | 80.5 µM (inactive) | 74.6 µM (inactive) | 32.4 µM (inactive) | > 100 µM (inactive) | > 100 µM (inactive) | 36.3 µM (inactive) | 36.7 µM (inactive) | > 100 µM (inactive) | > 100 µM (inactive) | > 100 µM (inactive) | > 100 µM (inactive) | 76.9 µM (inactive) | 94 µM (inactive) | 49.2 µM (inactive) | 32.3 µM (inactive) | 84.1 µM (inactive) |
| Cc1ncc(-c2nnnn2-c2ccccc2)c(C(=O)O)n1 | > 100 µM (inactive) | > 100 µM (inactive) |  | > 100 µM (inactive) | > 100 µM (inactive) | > 100 µM (inactive) | > 100 µM (inactive) | > 100 µM (inactive) | > 100 µM (inactive) | > 100 µM (inactive) | > 100 µM (inactive) | > 100 µM (inactive) | > 100 µM (inactive) | > 100 µM (inactive) | > 100 µM (inactive) | > 100 µM (inactive) | > 100 µM (inactive) | > 100 µM (inactive) | > 100 µM (inactive) | > 100 µM (inactive) |
| Cc1cccc(C)c1NC(=O)/C=C/c1ccccc1 |  | > 100 µM (inactive) | > 100 µM (inactive) | > 100 µM (inactive) | > 100 µM (inactive) | 50.1 µM (inactive) | > 100 µM (inactive) | > 100 µM (inactive) | > 100 µM (inactive) | > 100 µM (inactive) | > 100 µM (inactive) | 20.3 µM (inactive) | > 100 µM (inactive) | > 100 µM (inactive) | > 100 µM (inactive) | > 100 µM (inactive) | > 100 µM (inactive) | 67 µM (inactive) | > 100 µM (inactive) | > 100 µM (inactive) |
| CCN(CC)P1(=S)Oc2ccc3ccccc3c2-c2c(ccc3ccccc23)O1 | > 100 µM (inactive) | > 100 µM (inactive) | 99.3 µM (inactive) | 51.2 µM (inactive) | > 100 µM (inactive) | > 100 µM (inactive) | > 100 µM (inactive) | > 100 µM (inactive) | > 100 µM (inactive) | > 100 µM (inactive) | 22.5 µM (inactive) | > 100 µM (inactive) | > 100 µM (inactive) | 27.4 µM (inactive) | > 100 µM (inactive) | > 100 µM (inactive) | > 100 µM (inactive) | > 100 µM (inactive) | > 100 µM (inactive) | > 100 µM (inactive) |
| Cc1cc(NC(=O)NC(=O)c2ccccc2N)ccc1Oc1ncc(Br)cn1 | 0.0535 µM (active) | < 0.01 µM (active) | 4.78 µM (inactive) | < 0.01 µM (active) | 0.0583 µM (active) | 0.0118 µM (active) | < 0.01 µM (active) | < 0.0137 µM (active) | < 0.01 µM (active) | < 0.0119 µM (active) | 0.359 µM (active) | 0.0702 µM (active) | < 0.01 µM (active) | < 0.0631 µM (active) | < 0.01 µM (active) | < 0.01 µM (active) | 0.0112 µM (active) | 0.0826 µM (active) | 0.025 µM (active) | < 0.01 µM (active) |
| Cc1nc2sc3ccccc3n2c(=O)c1/N=N/c1ccc(Br)cc1 |  | 81.3 µM (inactive) | 71.3 µM (inactive) | > 100 µM (inactive) | > 100 µM (inactive) | > 100 µM (inactive) | 60.1 µM (inactive) | > 100 µM (inactive) | > 100 µM (inactive) | > 100 µM (inactive) | 90.8 µM (inactive) | 44.8 µM (inactive) | > 100 µM (inactive) | 82.6 µM (inactive) | > 100 µM (inactive) | > 100 µM (inactive) | > 100 µM (inactive) | 57.1 µM (inactive) | 71.3 µM (inactive) | 81.8 µM (inactive) |
| COc1ccc(CCNC(=O)Cc2ccccc2CO)cc1OC | > 100 µM (inactive) | > 100 µM (inactive) | > 100 µM (inactive) | > 100 µM (inactive) | > 100 µM (inactive) | > 100 µM (inactive) | > 100 µM (inactive) |  | > 100 µM (inactive) | > 100 µM (inactive) | > 100 µM (inactive) | > 100 µM (inactive) | > 100 µM (inactive) | > 100 µM (inactive) | > 100 µM (inactive) | > 100 µM (inactive) | > 100 µM (inactive) | > 100 µM (inactive) | > 100 µM (inactive) | > 100 µM (inactive) |
